How the values were obtained:
[1] = Pharmacokinetic Assay, single oral dose 100 mg/kg (Table 11); type: in vivo; details: mouse, C57 female mice, oral (intragastric), plasma
Procedure: Adult C57 female mice were received to single-dose of the test compounds with […], 10% Kolliphor^@HS 15 and 80% saline as excipients, the mice (n=9) were giving oral administration (intragastric administration) with the compounds at a dose of 100 mg/kg. Time of blood collection: 15 min, 30 min, 1 h, 2 h, 4 h, 7 h, 24 h. Approximately 0.1 mL of whole blood was collected from retro-orbital venous plexus of 3 mice at each time point, and placed into tubes that contained K2-EDTA as an anticoagulant. The whole blood was centrifuged at 4° C. and 4000 rpm for 10 min. The plasma was transferred into centrifuge tubes, and stored at −20° C. until being analyzed. Concentrations of test compounds in the plasma samples were analyzed with liquid chromatography-tandem mass spectrometry (LC-MS/MS). Plasma concentration-time data of individual animals was analyzed using Microsoft Excel 2010. Non-compartmental model was introduced in concentration analysis. The pharmacokinetic parameters of the test compounds were calculated using WinNonlin (version 4.1; Pharsight) software.

PD-1/PD-L1 = PD-1/PD-L1 (Homo sapiens (Human), UniProt Q9NZQ7); assay: PD-1/PD-L1 Binding Assay (Alphascreen); details: numeric values
Chain of PD-1/PD-L1 (Q9NZQ7 19-238): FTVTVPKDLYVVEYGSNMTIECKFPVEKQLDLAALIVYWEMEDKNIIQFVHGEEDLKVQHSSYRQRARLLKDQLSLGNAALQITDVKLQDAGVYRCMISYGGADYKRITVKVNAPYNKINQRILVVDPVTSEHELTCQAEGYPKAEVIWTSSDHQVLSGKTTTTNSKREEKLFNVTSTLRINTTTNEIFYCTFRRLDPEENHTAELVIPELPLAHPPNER
Summary of the method: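 PD-1/PD-L1 binding detected by anti-6×His acceptor and streptavidin donor beads after 120 min in the dark at 25 °C. Beforehand, the two proteins were incubated 15 min at 25 °C with inhibitor at 0.015–300 nM (1% DMSO). IC50 comes from a log concentration–response curve.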

AUC [1]	Cmax [1]	Tmax [1]	half-life [1]	IC50 (PD-1/PD-L1)	Structure (SMILES)
8240 ng·h/mL	974 ng/mL	4 h	3.97 h	0.75 nM	Cc1c(-c2nc3cc(CN4CCC4)c(OC(F)F)cc3o2)cccc1-c1cccc(-c2nc3cc(CN4CCC[C@H]4C(=O)O)c(OC(F)F)cc3o2)c1C [Example 8, ((2-(3′-(5-(azetidin-1-ylmethyl)-6-(difluoromethoxy)benzo[d]oxazol-2-yl)-2,2′-dimethyl-[1,1′-biphenyl]-3-yl)-6-(difluoromethoxy)benzo[d]oxazol-5-yl)methyl)-L-proline]
14500 ng·h/mL	1380 ng/mL	2 h	7.97 h	1.1 nM	Cc1c(-c2nc3cc(CN4CCC[C@H]4CO)c(OC(F)F)cc3o2)cccc1-c1cccc(-c2nc3cc(CN4CCC[C@H]4C(=O)O)c(OC(F)F)cc3o2)c1C [Example 12, ((6-(difluoromethoxy)-2-(3′-(6-(difluoromethoxy)-5-(((S)-2-(hydroxymethyl)pyrrolidin-1-yl)methyl)benzo[d]oxazol-2-yl)-2,2′-dimethyl-[1,1′-biphenyl]-3-yl)benzo[d]oxazol-5-yl)methyl)-L-proline]
3450 ng·h/mL	589 ng/mL	1 h	6.2 h	1.2 nM	Cc1c(-c2nc3cc(CN4CCC(O)C4)c(OC(F)F)cc3o2)cccc1-c1cccc(-c2nc3cc(CN4CCC[C@H]4C(=O)O)c(OC(F)F)cc3o2)c1C (stereo partly drawn) [Example 14, ((6-(difluoromethoxy)-2-(3′-(6-(difluoromethoxy)-5-((3-hydroxypyrrolidin-1-yl)methyl)benzo[d]oxazol-2-yl)-2,2′-dimethyl-[1,1′-biphenyl]-3-yl)benzo[d]oxazol-5-yl)methyl)-L-proline]
5710 ng·h/mL	931 ng/mL	1 h	9.83 h	0.5 nM	CNCc1cc2nc(-c3cccc(-c4cccc(-c5nc6cc(CN7CCC[C@H]7C(=O)O)c(OC(F)F)cc6o5)c4C)c3C)oc2cc1OC(F)F [Example 15, ((6-(difluoromethoxy)-2-(3′-(6-(difluoromethoxy)-5-((methylamino)methyl)benzo[d]oxazol-2-yl)-2,2′-dimethyl-[1,1′-biphenyl]-3-yl)benzo[d]oxazol-5-yl)methyl)-L-proline]
20900 ng·h/mL	1470 ng/mL	4 h	4.8 h	1.1 nM	Cc1c(-c2nc3cc(CN(C)C)c(OC(F)F)cc3o2)cccc1-c1cccc(-c2nc3cc(CN4CCC[C@H]4C(=O)O)c(OC(F)F)cc3o2)c1C [Example 16, ((6-(difluoromethoxy)-2-(3′-(6-(difluoromethoxy)-5-((dimethylamino)methyl)benzo [d]oxazol-2-yl)-2,2′-dimethyl-[1,1′-biphenyl]-3-yl)benzo[d]oxazol-5-yl)methyl)-L-proline]
5800 ng·h/mL	1280 ng/mL	1 h	2.79 h	3.2 nM	Cc1c(-c2nc3cc(CNC4COC4)c(OC(F)F)cc3o2)cccc1-c1cccc(-c2nc3cc(CN4CCC[C@H]4C(=O)O)c(OC(F)F)cc3o2)c1C [Example 28, ((6-(difluoromethoxy)-2-(3′-(6-(difluoromethoxy)-5-((oxetan-3-ylamino)methyl)benzo [d]oxazol-2-yl)-2,2′-dimethyl-[1,1′-biphenyl]-3-yl)benzo[d]oxazol-5-yl)methyl)-L-proline]
42700 ng·h/mL	3720 ng/mL	1 h	4.67 h	1.2 nM	Cc1c(-c2nc3cc(CNC[C@H]4CCCO4)c(OC(F)F)cc3o2)cccc1-c1cccc(-c2nc3cc(CN4CCC[C@H]4C(=O)O)c(OC(F)F)cc3o2)c1C [Example 29, ((6-(difluoromethoxy)-2-(3′-(6-(difluoromethoxy)-5-(((((R)-tetrahydrofuran-2-yl)methyl)amino)methyl)benzo[d]oxazol-2-yl)-2,2′-dimethyl-[1,1′-biphenyl]-3-yl)benzo[d]oxazol-5-yl)methyl)-L-proline]
6600 ng·h/mL	1000 ng/mL	1 h	9.81 h	0.5 nM	Cc1c(-c2nc3cc(CN4CC[C@H]4CO)c(OC(F)F)cc3o2)cccc1-c1cccc(-c2nc3cc(CN4CCC[C@H]4C(=O)O)c(OC(F)F)cc3o2)c1C [Example 31, ((6-(difluoromethoxy)-2-(3′-(6-(difluoromethoxy)-5-(((S)-2-(hydroxymethyl)azetidin-1-yl)methyl)benzo[d]oxazol-2-yl)-2,2′-dimethyl-[1,1′-biphenyl]-3-yl)benzo[d]oxazol-5-yl)methyl)-L-proline]
8920 ng·h/mL	727 ng/mL	4 h	11 h	1.5 nM	Cc1c(-c2nc3cc(CN4CC(N(C)C)C4)c(OC(F)F)cc3o2)cccc1-c1cccc(-c2nc3cc(CN4CCC[C@H]4C(=O)O)c(OC(F)F)cc3o2)c1C [Example 33, ((6-(difluoromethoxy)-2-(3′-(6-(difluoromethoxy)-5-((3-(dimethylamino)azetidin-1-yl)methyl)benzo[d]oxazol-2-yl)-2,2′-dimethyl-[1,1′-biphenyl]-3-yl)benzo[d]oxazol-5-yl)methyl)-L-proline]
21400 ng·h/mL	1670 ng/mL	1 h	8.26 h	1.1 nM	Cc1c(-c2nc3cc(CN4CCC4C)c(OC(F)F)cc3o2)cccc1-c1cccc(-c2nc3cc(CN4CCC[C@H]4C(=O)O)c(OC(F)F)cc3o2)c1C (stereo partly drawn) [Example 36, ((6-(difluoromethoxy)-2-(3′-(6-(difluoromethoxy)-5-((2-methylazetidin-1-yl)methyl)benzo[d]oxazol-2-yl)-2,2′-dimethyl-[1,1′-biphenyl]-3-yl)benzo[d]oxazol-5-yl)methyl)-L-proline]
118000 ng·h/mL	8650 ng/mL	4 h	5.37 h	1.6 nM	Cc1c(-c2nc3cc(CN4CCC(C)C4)c(OC(F)F)cc3o2)cccc1-c1cccc(-c2nc3cc(CN4CCC[C@H]4C(=O)O)c(OC(F)F)cc3o2)c1C (stereo partly drawn) [Example 61, ((6-(difluoromethoxy)-2-(3′-(6-(difluoromethoxy)-5-((3-methylpyrrolidin-1-yl)methyl)benzo[d]oxazol-2-yl)-2,2′-dimethyl-[1,1′-biphenyl]-3-yl)benzo[d]oxazol-5-yl)methyl)-L-proline]
46500 ng·h/mL	4280 ng/mL	4 h	9.69 h	2.6 nM	Cc1c(-c2nc3cc(CN4CCC[C@H]4C(=O)O)c(OC(F)F)cc3o2)cccc1-c1cccc(-c2nc3cc(CN4CCCC4(C)C)c(OC(F)F)cc3o2)c1C [Example 62, ((6-(difluoromethoxy)-2-(3′-(6-(difluoromethoxy)-5-((2,2-dimethylpyrrolidin-1-yl)methyl)benzo[d]oxazol-2-yl)-2,2′-dimethyl-[1,1′-biphenyl]-3-yl)benzo[d]oxazol-5-yl)methyl)-L-proline]
43700 ng·h/mL	2920 ng/mL	1 h	5.8 h	5.7 nM	COC[C@@H]1CCCN1Cc1cc2nc(-c3cccc(-c4cccc(-c5nc6cc(CN7CCC[C@H]7C(=O)O)c(OC(F)F)cc6o5)c4C)c3C)oc2cc1OC(F)F [Example 63, ((6-(difluoromethoxy)-2-(3′-(6-(difluoromethoxy)-5-(((S)-2-(methoxymethyl)pyrrolidin-1-yl)methyl)benzo[d]oxazol-2-yl)-2,2′-dimethyl-[1,1′-biphenyl]-3-yl)benzo[d]oxazol-5-yl)methyl)-L-proline]
61500 ng·h/mL	4320 ng/mL	7 h	7.2 h	1.8 nM	Cc1c(-c2nc3cc(CNC[C@@H]4CCCO4)c(OC(F)F)cc3o2)cccc1-c1cccc(-c2nc3cc(CN4CCC[C@H]4C(=O)O)c(OC(F)F)cc3o2)c1C [Example 64, ((6-(difluoromethoxy)-2-(3′-(6-(difluoromethoxy)-5-(((((S)-tetrahydrofuran-2-yl)methyl)amino)methyl)benzo[d]oxazol-2-yl)-2,2′-dimethyl-[1,1′-biphenyl]-3-yl)benzo[d]oxazol-5-yl)methyl)-L-proline]
40400 ng·h/mL	2460 ng/mL	4 h	10.7 h	1.3 nM	Cc1c(-c2nc3cc(CN4CCC[C@H]4C(=O)O)c(OC(F)F)cc3o2)cccc1-c1cccc(-c2nc3cc(CN4CCCC4)c(OC(F)F)cc3o2)c1C#N [Example 65, ((2-(2′-cyano-3′-(6-(difluoromethoxy)-5-(pyrrolidin-1-ylmethyl)benzo[d]oxazol-2-yl)-2-methyl-[1,1′-biphenyl]-3-yl)-6-(difluoromethoxy)benzo[d]oxazol-5-yl)methyl)proline]

Structure (SMILES)	AUC [1]	Cmax [1]	Tmax [1]	half-life [1]	IC50 (PD-1/PD-L1)
Cc1c(-c2nc3cc(CN4CC5(CC5)C4)c(OC(F)F)cc3o2)cccc1-c1cccc(-c2nc3cc(CN4CCC[C@H]4C(=O)O)c(OC(F)F)cc3o2)c1C [Example 74, ((2-(3′-(5-((5-azaspiro [2.3]hexan-5-yl)methyl)-6-(difluoromethoxy)benzo[d]oxazol-2-yl)-2,2′-dimethyl-[1,1′-biphenyl]-3-yl)-6-(difluoromethoxy)benzo[d]oxazol-5-yl)methyl)-L-proline]	59500 ng·h/mL	4460 ng/mL	4 h	8.2 h	1.1 nM

Source: US12187713B2, “Immunomodulators, compositions and methods thereof” (Betta Pharmaceuticals Co., Ltd, priority 2019, dated 2025)
